Values of other authors as cited in patent US20090291122A1, “Wound Care Treatment Product” (SANO MEDICAL bvba, priority 2006, published 2009).

Tested on: E-coli

Structure (SMILES): O=[O+][O-] [Ozone]
- speed of killing E-coli relative to chlorine: 3125 times faster than chlorine
